Assays:
[1] = Biodegradability in marine medium, OCDE test 306; conditions: in words
Method: (§1) According to OCDE test 306 (marine medium), the composition of the invention (B1), comprising a compound of formula (I), has a biodegradability of 70%, i.e. greater than 60%. […] Its Log Pow measured according to OCDE 117 by HPLC is 2.93<3. Its Algal ecotoxicity is 2 mg·L^−1.

[2] = Bioaccumulation, Log Pow according to OCDE 117 by HPLC; format: physicochemical
Method: as §1

di-tallow-hydrogenodimethylammonium chloride [Noramium® M2SH]
Biodegradability classification [1]: not biodegradable | Bioaccumulation, in words [2]: bioaccumulable

dicocoyldimethylammonium chloride [Noramium® M2C]
Biodegradability classification [1]: not biodegradable | Bioaccumulation, in words [2]: bioaccumulable

Reference: patent US10774281B2, “Use of a particular carboxylic amino acid in order to limit the formation and/or agglomeration of gas hydrates” (Arkema France, priority 2015, dated 2020)
